Results as given in PubChem BioAssay AID1259407 (Chemical Carcinogenesis Research Information System (CCRIS), 2018).
Calls of active or inactive are those of the source. The rule behind the calls is not given here.

Tested on: CCRIS mutagenicity, Ames/micronucleus/aberration tests
Assay: CCRIS mutagenicity studies
[1] = Test System: AMES SALMONELLA TYPHIMURIUM, Strain/Indicator: TA98, Metabolic Activation: NONE, Method: PREINCUBATION
[2] = Test System: AMES SALMONELLA TYPHIMURIUM, Strain/Indicator: TA100, Metabolic Activation: NONE, Method: PREINCUBATION

Measured: mutagenic call

Oc1ccc(O)cc1
active: End Point: IN VITRO CHROMOSOMAL ABERRATIONS, Test System: CHINESE HAMSTER OVARY CELLS, Metabolic Activation: RAT, LIVER, S-9, AROCLOR 1254 active; positive | End Point: IN VITRO CHROMOSOMAL ABERRATIONS, Test System: CHINESE HAMSTER V79 CELLS, Metabolic Activation: NONE active; positive; effective at higher doses at ph 7.4 | End Point: IN VITRO CHROMOSOMAL ABERRATIONS, Test System: CHL/IU CELLS, Metabolic Activation: NONE active; positive (structural changes) | End Point: IN VITRO CHROMOSOMAL ABERRATIONS, Test System: HUMAN PERIPHERAL LYMPHOCYTES, Metabolic Activation: NONE active; positive (ploidy) | End Point: IN VITRO CHROMOSOMAL ABERRATIONS, Test System: HUMAN PERIPHERAL LYMPHOCYTES, Metabolic Activation: NONE, Method: FISH active; positive (ploidy); greater effects on certain chromosomes | End Point: IN VITRO CHROMOSOMAL ABERRATIONS, Test System: HUMAN PERIPHERAL LYMPHOCYTES, Metabolic Activation: NONE, Method: FISH - DUAL COLOR PROBES active; positive (structural and ploidy changes) | End Point: IN VITRO CHROMOSOMAL ABERRATIONS, Test System: HUMAN PERIPHERAL LYMPHOCYTES, Metabolic Activation: NONE, Method: FISH - SINGLE COLOR active; positive (ploidy) | End Point: IN VITRO CHROMOSOMAL ABERRATIONS, Test System: V79, Metabolic Activation: RAT, LIVER, S-9, AROCLOR 1254 active; positive; effective at higher doses at ph 7.4 | End Point: IN VITRO MICRONUCLEUS, Test System: CHL/IU CELLS, Metabolic Activation: NONE active; positive | End Point: IN VITRO MICRONUCLEUS, Test System: HAMSTER V79 CELLS, Metabolic Activation: NONE active; positive | End Point: IN VITRO MICRONUCLEUS, Test System: HUMAN LYMPHOCYTES, Metabolic Activation: NONE active; positive; individuals with gstm1 null genotype more affected than those with gst | End Point: In vitro chromosomal aberrations, Test System: Chinese hamster lung (CHL/IU) cells, Metabolic Activation: Rat, Liver, S9, Phenobarbital and 5,6-benzoflavone active; positive (structural changes and ploidy). toxic at 0.12 mg/ml. | Test System: AMES SALMONELLA TYPHIMURIUM, Strain/Indicator: TA97, Metabolic Activation: RAT, LIVER, S-9, PHENOBARBITAL, Method: PREINCUBATION active; positive | [1] active; positive | Test System: AMES SALMONELLA TYPHIMURIUM, Strain/Indicator: TA98, Metabolic Activation: RAT, LIVER, S-9, PHENOBARBITAL, Method: PREINCUBATION active; positive | [2] active; positive | Test System: AMES SALMONELLA TYPHIMURIUM, Strain/Indicator: TA100, Metabolic Activation: RAT, LIVER, S-9, PHENOBARBITAL, Method: PREINCUBATION active; positive | Test System: AMES SALMONELLA TYPHIMURIUM, Strain/Indicator: TA102, Metabolic Activation: NONE, Method: STANDARD PLATE active; positive | Test System: AMES SALMONELLA TYPHIMURIUM, Strain/Indicator: TA104, Metabolic Activation: NONE, Method: PREINCUBATION active; positive | Test System: UDS SHE CELLS, Strain/Indicator: THY INCORP, Metabolic Activation: NONE, Method: LIQUID SCINTILLATION COUNTING active; positive
inactive: End Point: IN VITRO CHROMOSOMAL ABERRATIONS, Test System: CHINESE HAMSTER OVARY CELLS, Metabolic Activation: NONE inactive; negative | End Point: IN VITRO CHROMOSOMAL ABERRATIONS, Test System: HUMAN (MALE) PERIPHERAL BLOOD LYMPHOCYTES, Metabolic Activation: NONE inactive; negative | End Point: IN VITRO CHROMOSOMAL ABERRATIONS, Test System: HUMAN (MALE) PERIPHERAL BLOOD LYMPHOCYTES, Metabolic Activation: RAT, LIVER, S-9, AROCLOR 1254 inactive; negative | End Point: IN VITRO CHROMOSOMAL ABERRATIONS, Test System: HUMAN PERIPHERAL LYMPHOCYTES, Metabolic Activation: NONE, Method: FISH- DUAL COLOR PROBES inactive; negative for translocations | Test System: AMES SALMONELLA TYPHIMURIUM, Strain/Indicator: TA97, Metabolic Activation: NONE, Method: STANDARD PLATE inactive; negative | Test System: AMES SALMONELLA TYPHIMURIUM, Strain/Indicator: TA97, Metabolic Activation: RAT, LIVER, S-9, PCB, Method: STANDARD PLATE inactive; negative | Test System: AMES SALMONELLA TYPHIMURIUM, Strain/Indicator: TA98, Metabolic Activation: NONE, Method: STANDARD PLATE inactive; negative | Test System: AMES SALMONELLA TYPHIMURIUM, Strain/Indicator: TA98, Metabolic Activation: RAT, LIVER, S-9, PCB, Method: STANDARD PLATE inactive; negative | Test System: AMES SALMONELLA TYPHIMURIUM, Strain/Indicator: TA100, Metabolic Activation: NONE, Method: STANDARD PLATE inactive; negative | Test System: AMES SALMONELLA TYPHIMURIUM, Strain/Indicator: TA100, Metabolic Activation: RAT, LIVER, S-9, PCB, Method: STANDARD PLATE inactive; negative

CCCCB(CCCC)CCCC
active: Test System: AMES SALMONELLA TYPHIMURIUM, Strain/Indicator: TA98, Metabolic Activation: HAMSTER, LIVER, S-9, AROCLOR 1254, Method: STANDARD PLATE active; positive | Test System: AMES SALMONELLA TYPHIMURIUM, Strain/Indicator: TA98, Metabolic Activation: RAT, LIVER, S-9, AROCLOR 1254, Method: STANDARD PLATE active; positive | Test System: AMES SALMONELLA TYPHIMURIUM, Strain/Indicator: TA100, Metabolic Activation: HAMSTER, LIVER, S-9, AROCLOR 1254, Method: STANDARD PLATE active; positive
inactive: Test System: MOUSE LYMPHOMA, Strain/Indicator: L5178Y (TK+/TK-), Metabolic Activation: NONE, Method: SUSPENSION/PLATE inactive; negative. reevaluation of results: negative | Test System: MOUSE LYMPHOMA, Strain/Indicator: L5178Y (TK+/TK-), Metabolic Activation: RAT, LIVER, S-9, AROCLOR 1254, Method: SUSPENSION/PLATE inactive; negative. reevaluation of results: negative

CSC(C)(C)C(=O)N[C@@H](CS)C(=O)O
inactive: [1] inactive; negative | [2] inactive; negative | Test System: AMES SALMONELLA TYPHIMURIUM, Strain/Indicator: TA1535, Metabolic Activation: NONE, Method: PREINCUBATION inactive; negative | Test System: AMES SALMONELLA TYPHIMURIUM, Strain/Indicator: TA1537, Metabolic Activation: NONE, Method: PREINCUBATION inactive; negative | Test System: AMES SALMONELLA TYPHIMURIUM, Strain/Indicator: TA1538, Metabolic Activation: NONE, Method: PREINCUBATION inactive; negative | Test System: E. COLI, Strain/Indicator: WP2, Metabolic Activation: NONE, Method: PREINCUBATION inactive; negative | Test System: E. COLI, Strain/Indicator: WP2 UVRA, Metabolic Activation: NONE, Method: PREINCUBATION inactive; negative

Cc1cccc2cc3ccc4cccc5ccc(c12)c3c45
active: Test System: AMES SALMONELLA TYPHIMURIUM, Strain/Indicator: TA100, Metabolic Activation: RAT, NADPH-FORTIFIED HOMOGENIZED HEPATOCYTES, AROCLOR 1254, Method: PREINCUBATION active; positive
inactive: Test System: AMES SALMONELLA TYPHIMURIUM, Strain/Indicator: TA100, Metabolic Activation: RAT, INTACT HEPATOCYTES, AROCLOR 1254, Method: PREINCUBATION inactive; negative
